Assay results from PubChem BioAssay AID248 (DTP/NCI, 2004).
“And” between values parts separate entries of the source, which are not always exact repeats. Equal values may be shown once. Toxic doses and inconclusive results are not listed. Rule as the data show it: active = T/C of 150% or more; inactive = T/C below 125%.

System: L1210 leukemia ip in BDF1 mice, survival T/C
Test: NCI In Vivo Anticancer Drug Screen. Data for tumor model L1210 Leukemia (intraperitoneal) in B6D2F1 (BDF1) mice
Conditions: endpoint: mean survival time, higher = longer survival
Outline: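 Ratio derived from survival: compound-dosed mice over vehicle-dosed mice, all bearing a transplantable tumor.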

[1] = dose: 100.0 mg/kg/injection, schedule: Q04DX003 (ip), vehicle: Klucel (hydroxypropylcellulose) (HPC)
[2] = dose: 200.0 mg/kg/injection, schedule: Q04DX003 (ip), vehicle: Klucel (hydroxypropylcellulose) (HPC)
[3] = dose: 400.0 mg/kg/injection, schedule: Q04DX003 (ip), vehicle: Klucel (hydroxypropylcellulose) (HPC)
[4] = dose: 100.0 mg/kg/injection, schedule: Q04DX003 (ip), vehicle: saline with Tween-80
[5] = dose: 200.0 mg/kg/injection, schedule: Q04DX003 (ip), vehicle: saline with Tween-80
[6] = dose: 400.0 mg/kg/injection, schedule: Q04DX003 (ip), vehicle: saline with Tween-80
[7] = dose: 25.0 mg/kg/injection, schedule: Q01DX009 (ip), vehicle: saline with Tween-80
[8] = dose: 100.0 mg/kg/injection, schedule: Q01DX009 (ip), vehicle: saline with Tween-80
[9] = dose: 50.0 mg/kg/injection, schedule: Q01DX009 (ip), vehicle: Klucel (hydroxypropylcellulose) (HPC)
[10] = dose: 100.0 mg/kg/injection, schedule: Q01DX009 (ip), vehicle: Klucel (hydroxypropylcellulose) (HPC)
[11] = dose: 200.0 mg/kg/injection, schedule: Q01DX009 (ip), vehicle: saline with Tween-80
[12] = dose: 400.0 mg/kg/injection, schedule: Q01DX009 (ip), vehicle: saline with Tween-80
[13] = dose: 100.0 mg/kg/injection, schedule: Q01DX001 (ip), vehicle: saline
[14] = dose: 200.0 mg/kg/injection, schedule: Q01DX001 (ip), vehicle: saline
[15] = dose: 400.0 mg/kg/injection, schedule: Q01DX001 (ip), vehicle: saline
[16] = dose: 25.0 mg/kg/injection, schedule: Q01DX009 (ip), vehicle: Klucel (hydroxypropylcellulose) (HPC)

Measured: T/C

CC(=O)Nc1cc(C(=O)Nc2ccc(C)cc2C)ccc1C
inactive: dose: 50.0 mg/kg/injection, schedule: Q04DX003 (ip), vehicle: Klucel (hydroxypropylcellulose) (HPC) 92 % of control | [1] 92 % of control | [2] 92 % of control

CCC(=O)c1ccc(OC(=O)Nc2ccc(C)c(NC(=O)Oc3ccc(C(=O)CC)cc3)c2)cc1
inactive: dose: 100.0 mg/kg/injection, schedule: Q01DX009 (ip), vehicle: other 107 % of control | dose: 200.0 mg/kg/injection, schedule: Q01DX009 (ip), vehicle: other 100 % of control

O=C(c1ccccc1)C(Cc1ccccc1)C(Cc1ccccc1)c1ccccc1 (centres undefined)
inactive: dose: 100.0 mg/kg/injection, schedule: Q04DX003 (ip), vehicle: acetone 93 % of control | dose: 200.0 mg/kg/injection, schedule: Q04DX003 (ip), vehicle: acetone 98 % of control | dose: 400.0 mg/kg/injection, schedule: Q04DX003 (ip), vehicle: acetone 92 % of control

ClC(Cl)=C1SCCCS1
inactive: dose: 100.0 mg/kg/injection, schedule: Q01DX001 (ip), vehicle: saline with Tween-80 96 % of control | dose: 200.0 mg/kg/injection, schedule: Q01DX001 (ip), vehicle: saline with Tween-80 108 % of control

C/C(O)=C/c1cc(N2CCCCC2)nc(=S)[nH]1
inactive: [1] 102 % of control | [2] 100 % of control | [3] 100 % of control

O=C1C=C(c2ccccc2)Sc2ccccc2N1
inactive: [4] 97 % of control | [5] 100 % of control | [6] 97 % of control

CN(C)C(=S)SC(=S)N(C)C
inactive: dose: 25.0 mg/kg/injection, schedule: Q04DX002 (ip), vehicle: Klucel (hydroxypropylcellulose) (HPC) 106 % of control | dose: 50.0 mg/kg/injection, schedule: Q04DX002 (ip), vehicle: Klucel (hydroxypropylcellulose) (HPC) 100 % of control | dose: 100.0 mg/kg/injection, schedule: Q04DX002 (ip), vehicle: Klucel (hydroxypropylcellulose) (HPC) 89 % of control | dose: 200.0 mg/kg/injection, schedule: Q04DX002 (ip), vehicle: Klucel (hydroxypropylcellulose) (HPC) 91 % of control | dose: 400.0 mg/kg/injection, schedule: Q04DX002 (ip), vehicle: Klucel (hydroxypropylcellulose) (HPC) 98 % of control

O=C(O)COc1ccccc1-c1ccccc1Cl
inactive: [1] 98 % of control | [2] 90 % of control

Nc1[nH]nc2nc(-c3ccccc3)cnc12
inactive: [7] 121 % of control | dose: 50.0 mg/kg/injection, schedule: Q01DX009 (ip), vehicle: saline with Tween-80 110 % of control | [8] 95 % of control and 102 % of control | [4] 94 % of control | [5] 92 % of control | [6] 92 % of control

NC(=O)c1c(CC(=O)O)nn(-c2ccccc2)c1N
inactive: [9] 94 % of control | [10] 98 % of control | dose: 200.0 mg/kg/injection, schedule: Q01DX009 (ip), vehicle: Klucel (hydroxypropylcellulose) (HPC) 102 % of control

N#Cc1ncc(-c2ccccc2)nc1C#N
inactive: [8] 103 % of control | [11] 100 % of control | [12] 88 % of control

CC(C(N)=O)N1C(=O)C2C3C=CC(C3)C2C1=O (centres undefined)
inactive: [4] 109 % of control | [6] 97 % of control

CCCCc1ccc(C2=CC(=O)C(c3ccc(CCCC)cc3)=CC2=O)cc1
inactive: [13] 98 % of control | [14] 95 % of control | [15] 97 % of control

O=C(O)O.[Co].[NH-]CC[N-]CC[N-]CC[NH-]
inactive: dose: 50.0 mg/kg/injection, schedule: Q01DX001 (ip), vehicle: saline 97 % of control | [13] 108 % of control | [14] 92 % of control | [15] 100 % of control

O=C(Nc1ccccc1)N(Cc1ccccc1)c1ccccc1
inactive: [8] 90 % of control | [4] 101 % of control | [11] 89 % of control | [5] 101 % of control | [12] 96 % of control | [6] 86 % of control

O=C(O)CNc1cccc([N+](=O)[O-])c1
inactive: dose: 65.0 mg/kg/injection, schedule: Q01DX009 (ip), vehicle: Klucel (hydroxypropylcellulose) (HPC) 100 % of control | [10] 100 % of control | [1] 98 % of control | dose: 150.0 mg/kg/injection, schedule: Q01DX009 (ip), vehicle: Klucel (hydroxypropylcellulose) (HPC) 94 % of control | [2] 93 % of control | [3] 101 % of control

O=S(=O)(CCCCCl)Cc1ccccc1
inactive: [13] 101 % of control | dose: 100.0 mg/kg/injection, schedule: Q01DX009 (ip), vehicle: saline 110 % of control | dose: 100.0 mg/kg/injection, schedule: Q04DX003 (ip), vehicle: saline 104 % of control | [14] 96 % of control | dose: 200.0 mg/kg/injection, schedule: Q01DX009 (ip), vehicle: saline 94 % of control | dose: 200.0 mg/kg/injection, schedule: Q04DX003 (ip), vehicle: saline 104 % of control | [15] 93 % of control | dose: 400.0 mg/kg/injection, schedule: Q01DX009 (ip), vehicle: saline 103 % of control | dose: 400.0 mg/kg/injection, schedule: Q04DX003 (ip), vehicle: saline 93 % of control

COc1ccc(/C=N\NC(=O)N/N=C/c2ccc(OC)c(OC)c2)cc1OC
inactive: dose: 50.0 mg/kg/injection, schedule: Q01DX001 (ip), vehicle: Klucel (hydroxypropylcellulose) (HPC) 90 % of control | dose: 100.0 mg/kg/injection, schedule: Q01DX001 (ip), vehicle: Klucel (hydroxypropylcellulose) (HPC) 95 % of control

NS(=O)(=O)c1ccc(N=Nc2ncc(CCNC3=CC(=O)C(=O)c4ccccc43)[nH]2)cc1
inactive: dose: 12.5 mg/kg/injection, schedule: Q01DX009 (ip), vehicle: Klucel (hydroxypropylcellulose) (HPC) 93 % of control | [16] 96 % of control | [9] 96 % of control and 92 % of control

CCCCCCCCCCCCCCCCCC(=O)NCC#CCN1CCCC1
inactive: dose: 5.0 mg/kg/injection, schedule: Q01DX001 (ip), vehicle: saline 97 % of control | dose: 10.0 mg/kg/injection, schedule: Q01DX001 (ip), vehicle: saline 94 % of control | dose: 20.0 mg/kg/injection, schedule: Q01DX001 (ip), vehicle: saline 100 % of control | [16] 96 % of control | dose: 40.0 mg/kg/injection, schedule: Q01DX001 (ip), vehicle: saline 105 % of control | [9] 95 % of control | dose: 80.0 mg/kg/injection, schedule: Q01DX001 (ip), vehicle: saline 94 % of control | [10] 90 % of control | [15] 104 % of control

COc1cc(NC(C)CCCN)c2nc(OCc3ccccc3)ccc2c1 (centres undefined)
inactive: dose: 6.25 mg/kg/injection, schedule: Q01DX009 (ip), vehicle: saline with Tween-80 96 % of control | dose: 6.25 mg/kg/injection, schedule: Q04DX003 (ip), vehicle: saline with Tween-80 96 % of control | dose: 12.5 mg/kg/injection, schedule: Q01DX009 (ip), vehicle: saline with Tween-80 98 % of control | dose: 12.5 mg/kg/injection, schedule: Q04DX003 (ip), vehicle: saline with Tween-80 93 % of control | [7] 97 % of control | dose: 25.0 mg/kg/injection, schedule: Q04DX003 (ip), vehicle: saline with Tween-80 99 % of control

CCN(CC)CCCN1c2ccccc2Sc2ccc(Cl)cc21
inactive: dose: 1.56 mg/kg/injection, schedule: Q01DX009 (ip), vehicle: saline 102 % of control | dose: 3.12 mg/kg/injection, schedule: Q01DX009 (ip), vehicle: saline 98 % of control | dose: 6.25 mg/kg/injection, schedule: Q01DX009 (ip), vehicle: saline 96 % of control | dose: 12.5 mg/kg/injection, schedule: Q01DX009 (ip), vehicle: saline 103 % of control | dose: 12.5 mg/kg/injection, schedule: Q04DX003 (ip), vehicle: saline 102 % of control | dose: 25.0 mg/kg/injection, schedule: Q04DX003 (ip), vehicle: saline 109 % of control

O=c1cc(Oc2ccccc2)[nH]c(=O)[nH]1
inactive: dose: 65.0 mg/kg/injection, schedule: Q01DX001 (ip), vehicle: Klucel (hydroxypropylcellulose) (HPC) 112 % of control | dose: 130.0 mg/kg/injection, schedule: Q01DX001 (ip), vehicle: Klucel (hydroxypropylcellulose) (HPC) 93 % of control | dose: 260.0 mg/kg/injection, schedule: Q01DX001 (ip), vehicle: Klucel (hydroxypropylcellulose) (HPC) 93 % of control
